Results from patent US5407961A, “α-substituted benzenemethanamine derivatives and pharmaceutical use” (Janssen Pharmaceutica N.V., priority 1991, dated 1995).
Values after ≈ are worked out from the molar mass of the structure shown. Like-named read-outs stand apart in the source and are kept apart here.

How the values were obtained:
[1] = tested on: HIV-1; experiment: in-vitro anti-HIV assay: inhibition of the HIV-induced cytopathic effect in HIV-infected MT-4 cells (MTT); format: cell-based, Human Immunodeficiency Virus; details: for SI (selectivity index): ratio of CD50 to ED50
Method: (§1) A rapid, sensitive and automated assay procedure was used for the in-vitro evaluation of anti-HIV agents. An […] T4-cell line, MT-4, which was previously shown (Koyanagi et al., Int. J. Cancer, 36, 445-451, 1985) to be highly susceptible to and permissive for HIV infection, served as the target cell line. Inhibition of the HIV-induced cytopathic effect was used as the end point. The viability of both HIV- and mock-infected cells was assessed spectrophotometrically via the in-situ reduction of 3-(4,5-dimethylthiazol-2-yl)-2,5-diphenyltetrazolium bromide (MTT). The 50% cytotoxic dose (CD50 in μg/ml) was defined as the concentration of compound that reduced the absorbance of the mock-infectedcontrol sample by 50%. The percent protection achieved by the compound in HIV-infected cells was calculated by the following formula: [formula] whereby (ODT)HIV is the optical density measured with a given concentration of the test compound in HIV-infected cells; (ODC)HIV is the optical density measured for the control untreated HIV-infected cells; (ODC)MOCK is the optical density measured for the control untreated mock-infected cells; all optical density values were determined at 540 nm. The dose achieving 50% protection according to the above formula was defined as the 50% effective dose (ED50 in μg/ml). The ratio of CD50 to ED50 was defined as the selectivity index (SI).

[2] = in vitro; format: cell-based; details: human, mt-4 cells
Method: as §1

[3] = Human immunodeficiency virus 1, MT4, dose achieving 50% protection in HIV-infected MT-4 cells, MTT, 540 nm, read-out: ED50 (50% effective dose)

In the case of `Cc1cc2c(c(NC(C(N)=O)c3c(Cl)cccc3Cl)c1)C(=O)CC2` (racemic) [Compound 1, (±)-2,6-dichloro-α-[(2,3-dihydro-6-methyl-3-oxo-1H-inden-4-yl)amino]benzene-acetamide], the EC50 [1, 3] is reported as 0.0038 µg/mL (≈ 0.0105 µM), the “SI (selectivity index)” value [1] is reported as 54560 and the CC50 [2] is reported as 207 µg/mL (≈ 570 µM).
For `NC(=O)C(Nc1cccc2c1C(=O)CO2)c1c(Cl)cccc1Cl` (racemic) [Compound 9, (±)-2,6-dichloro-α-[(2,3-dihydro-3-oxo-4-benzofuranyl)amino]benzeneacetamide], the EC50 [1, 3] was 0.12 µg/mL (≈ 0.342 µM), the “SI (selectivity index)” value [1] was 1405 and the CC50 [2] was 169 µg/mL (≈ 480 µM).
For `CC(=O)c1ccccc1NC(C)c1c(Cl)cccc1Cl` (racemic) [Compound 10, (±)-1-[2-[[1-(2,6-dichlorophenyl)ethyl]amino]phenyl]ethanone], the EC50 [1, 3] was 0.022 µg/mL (≈ 0.0714 µM), the “SI (selectivity index)” value [1] was 227 and the CC50 [2] was 5 µg/mL (≈ 16.2 µM).
With `O=[N+]([O-])c1ccccc1NC(CO)c1c(Cl)cccc1Cl` (racemic) [Compound 12, (±)-2,6-dichloro-β-(2-nitrophenyl)amino]benzeneethanol] the EC50 [1, 3] was 0.18 µg/mL (≈ 0.55 µM), the “SI (selectivity index)” value [1] was 25 and the CC50 [2] was 4.3 µg/mL (≈ 13.1 µM).
In the case of `CC(=O)c1ccccc1NC(c1c(Cl)cccc1Cl)C1CC1` (racemic) [Compound 14, (±)-1-[2-[[cyclopropyl-(2,6-dichlorophenyl)methyl]amino]phenyl]ethanone], the EC50 [1, 3] is reported as 0.15 µg/mL (≈ 0.449 µM), the “SI (selectivity index)” value [1] is reported as 27 and the CC50 [2] is reported as 4.1 µg/mL (≈ 12.3 µM).
For `CC(=O)c1cc2c(cc1NC(C(N)=O)c1c(Cl)cccc1Cl)CCC2` (stereo not drawn) [Compound 5], the EC50 [1, 3] was 0.2 µg/mL (≈ 0.53 µM), the “SI (selectivity index)” value [1] was 50 and the CC50 [2] was 10 µg/mL (≈ 26.5 µM).
For `NC(=O)C(Nc1cc(Cl)cc2c1OCC2)c1c(Cl)cccc1Cl` (stereo not drawn) [Compound 6], the EC50 [1, 3] was 0.079 µg/mL (≈ 0.213 µM), the “SI (selectivity index)” value [1] was 11 and the CC50 [2] was 0.87 µg/mL (≈ 2.34 µM).
For `NC(=O)C(Nc1cccc2ccc[n+]([O-])c12)c1c(Cl)cccc1Cl` (stereo not drawn) [Compound 7], the EC50 ([1]; Human immunodeficiency virus 1, MT4, read-out: ED50 (50% effective dose)) was 0.047 µg/mL (≈ 0.13 µM), the “SI (selectivity index)” value [1] was 3255 and the CC50 [2] was 53 µg/mL (≈ 146 µM).
With `CCC(Nc1ccccc1C(C)=O)c1c(Cl)cccc1Cl` (stereo not drawn) [Compound 11, 1-[2-[[1-(2,6-dichlorophenyl)propyl]amino]phenyl]ethanone] the EC50 [1, 3] was 0.52 µg/mL (≈ 1.61 µM), the “SI (selectivity index)” value [1] was 13 and the CC50 [2] was 6.9 µg/mL (≈ 21.4 µM).
For `CC(Nc1ccccc1[N+](=O)[O-])c1c(Cl)cccc1Cl` (stereo not drawn) [Compound 13, 2,6-dichloro-α-methyl-N-(2-nitrophenyl)benzenemethanamine], the EC50 [1, 3] was 0.021 µg/mL (≈ 0.0675 µM), the “SI (selectivity index)” value [1] was 6 and the CC50 [2] was 0.13 µg/mL (≈ 0.418 µM).
